# The Kinase Knowledgebase extract (Sharma et al. 2016)
# Target: EGFR (mouse) (UniProt P00533)
# Details: baf3
row,SMILES,IC50
1,O=C(O)c1ccc(-c2cc3c(Nc4cccc(Cl)c4)ncnc3[nH]2)cc1,12 nM
2,O=C(O)c1cc(N(Cc2ccccc2O)Cc2cc(O)ccc2O)ccc1O,12 nM
3,COc1cc2ncnc(Nc3ccc(F)c(Cl)c3)c2cc1OCCN1CCOCC1,20 nM

# Target: EGFR (human) (UniProt P00533)
# Details: mcf-10a
# Sequence of EGFR (human) (P00533 whole entry, looked up): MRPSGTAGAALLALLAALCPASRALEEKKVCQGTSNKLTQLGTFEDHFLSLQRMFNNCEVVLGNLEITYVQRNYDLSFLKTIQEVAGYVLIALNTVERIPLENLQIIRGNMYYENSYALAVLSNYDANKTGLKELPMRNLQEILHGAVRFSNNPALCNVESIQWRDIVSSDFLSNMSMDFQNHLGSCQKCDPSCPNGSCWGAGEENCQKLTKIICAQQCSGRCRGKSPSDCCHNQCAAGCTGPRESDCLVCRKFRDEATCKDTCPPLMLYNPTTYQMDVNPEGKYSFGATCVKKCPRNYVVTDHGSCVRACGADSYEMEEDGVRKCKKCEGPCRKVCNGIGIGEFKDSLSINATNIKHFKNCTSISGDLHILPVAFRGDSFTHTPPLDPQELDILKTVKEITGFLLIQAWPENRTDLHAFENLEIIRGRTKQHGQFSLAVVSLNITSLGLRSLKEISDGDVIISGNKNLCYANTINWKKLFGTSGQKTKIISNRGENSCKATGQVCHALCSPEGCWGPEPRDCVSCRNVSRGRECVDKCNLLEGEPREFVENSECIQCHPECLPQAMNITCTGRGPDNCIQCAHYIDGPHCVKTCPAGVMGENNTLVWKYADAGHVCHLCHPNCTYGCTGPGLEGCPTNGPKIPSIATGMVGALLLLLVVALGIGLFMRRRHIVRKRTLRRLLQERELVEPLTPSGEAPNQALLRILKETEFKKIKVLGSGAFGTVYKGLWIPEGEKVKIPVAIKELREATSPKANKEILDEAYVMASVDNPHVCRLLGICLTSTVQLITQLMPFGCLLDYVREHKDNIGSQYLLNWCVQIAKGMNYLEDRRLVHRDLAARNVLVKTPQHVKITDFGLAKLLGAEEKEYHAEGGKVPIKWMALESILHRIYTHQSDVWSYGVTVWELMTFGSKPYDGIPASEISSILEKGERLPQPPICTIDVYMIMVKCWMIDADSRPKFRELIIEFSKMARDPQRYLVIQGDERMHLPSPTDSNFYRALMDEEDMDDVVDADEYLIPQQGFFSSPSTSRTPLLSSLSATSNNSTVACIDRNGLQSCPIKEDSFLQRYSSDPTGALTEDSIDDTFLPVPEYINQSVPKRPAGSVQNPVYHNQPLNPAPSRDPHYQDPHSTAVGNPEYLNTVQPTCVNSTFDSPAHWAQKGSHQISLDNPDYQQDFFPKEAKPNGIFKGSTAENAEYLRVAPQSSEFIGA
row,SMILES,IC50
1,CCOc1cc2ncnc(Nc3cccc(Br)c3)c2cc1OCC,78 nM
2,CCOc1cc2ncnc(Nc3cccc(I)c3)c2cc1OCC,153 nM
3,COc1cc2ncnc(Nc3ccccc3F)c2cc1OC,179 nM
4,CCOc1cc2ncnc(Nc3ccc(F)cc3)c2cc1OCC,622 nM
5,CCOc1cc2ncnc(Nc3cc(F)cc(C(F)(F)F)c3)c2cc1OCC,> 3000 nM
6,CCOc1cc2ncnc(Nc3cccc(F)c3)c2cc1OCC,99 nM
7,COc1cc2ncnc(Nc3ccc(F)cc3)c2cc1OC,612 nM
8,CCOc1cc2ncnc(NCc3ccc(F)cc3)c2cc1OCC,188 nM
9,COc1cc2ncnc(Nc3cccc(I)c3)c2cc1OC,585 nM
10,CCOc1cc2ncnc(Nc3ccccc3F)c2cc1OCC,141 nM
11,CCOc1cc2ncnc(Nc3cccc(Cl)c3)c2cc1OCC,108 nM
12,COc1cc2ncnc(Nc3cc(F)cc(C(F)(F)F)c3)c2cc1OC,1630 nM
